In this assay the target is T1, PPARG-LBD (Homo sapiens, UniProt P37231).
T1 construct: purchased ThermoFisher
T1 sequence (P37231 238-503 limits assumed): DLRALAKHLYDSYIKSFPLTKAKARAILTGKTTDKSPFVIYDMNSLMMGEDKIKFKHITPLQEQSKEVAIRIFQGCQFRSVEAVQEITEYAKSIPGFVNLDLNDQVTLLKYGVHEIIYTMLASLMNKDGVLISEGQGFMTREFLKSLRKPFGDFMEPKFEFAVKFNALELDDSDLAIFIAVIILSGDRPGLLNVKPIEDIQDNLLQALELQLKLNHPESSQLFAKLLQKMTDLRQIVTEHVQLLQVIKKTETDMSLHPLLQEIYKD
Kind of assay: Biochemical LanthaScreen TR-FRET PPAR gamma corepressor assay (PPARG-LBD / NCOR2 peptide). The note with it: 2 h, read-out: Efficacy. Here is the method: Biochemical Assay for Determining Inverse Agonist Activity of Compounds
A biochemical interaction assay measuring the ligand-dependent changes in interactions between the PPARG-LBD and a fluorescent peptide from the corepressor, NCOR2 (Smrt ID2, ThermoFisher), was performed to evaluate inverse agonist activity.
This assay was performed according to the manufacturers protocol (LanthaScreen TR-FRET PPAR gamma Corepressor Assay, ThermoFisher). […] After incubation the FRET signal was measured using an PHERAstar Plus Plate Reader (BMG). Every sample was tested in duplicate and mean values were used to calculate the EC50 values and efficacies of the compounds. A model of nonlinear regression curve fit was used for calculation.

On to `C=CC(=O)Nc1ccc2oc(-c3ccc(CC)cc3)nc2c1` [Example 24, N-[2-(4-Ethylphenyl)-1,3-benzoxazol-5-yl]prop-2-enamide], for which the Emax came out at 0%.

The values above are taken from patent US20240109850A1, “Covalent PPARG inverse-agonists” (Bayer Aktiengesellschaft, priority 2022, published 2024).
